{"source": "patent US20250268931A1", "about": "“TRANSCRIPTIONAL INHIBITOR FOR IMMUNE-RELATED GENE” (The University of Tokyo, priority 2022, published 2025)", "key": {"[1]": {"target": "DNA sequence (GAAAGTG C GAAAGTG C GAAAGTG C: SEQ ID No: 28)", "experiment": "Binding to target DNA sequence, Octet K2", "details": "Octet K2, 10 to 320 nM, binding and dissociation 60 seconds each, biotin-labeled target sequence", "description": "In order to verify the cytotoxic activity of IRF-PIPA 3, dsDNA concentration (left view in the figure) and LDH concentration (right view in the figure) in the culture supernatant were measured. The same experiment as that in FIG. 2 was carried out, and the culture supernatant was recovered. A lysate obtained by mixing 2.5×10^5 peritoneal macrophages with 90 μL of 10% FBS-RPMI or D-MEM medium and 10 μL of Lysis Buffer, and then disrupting the cells, was used as a positive control. […] Using Octet K2, the binding of each concentration of IRF-PIPA 3 shown in the figure and a target DNA sequence was analyzed. After mixing a PIPA solution with target DNA, the binding of the two substances was measured for 60 seconds. […] From changes in the binding and dissociation at each concentration over time, a Kd value was calculated as a dissociation constant indicating a binding force. The analysis was performed using Octet K2 (ForteBio) according to standard protocols. A streptavidin-conjugated sensor (ForteBio) was used, and a biotin-labeled target sequence (FASMAC) was allowed to bind to the sensor. Further, according to standard protocols, the binding of 10 to 320 nM IRF-PIPA 3 and the target sequence, and dissociation thereof were analyzed for 60 seconds each."}, "IFN-β, IL-6 and TNF-α": {"test_system": "IFN-β, IL-6 and TNF-α", "experiment": "Cytokine protein expression in peritoneal macrophages treated with LNP-mRNA encoding ovalbumin (ELISA)", "format": "cell-based, mice", "details": "6 μM, LNP-mRNA (OVA) 0.5 μg/mL 20 to 24 hours", "description": "Peritoneal macrophages were harvested from wild-type mice, and were then seeded on a 96-well plate at a cell density of 2.5×10^5 cells/well, followed by culturing for 2 hours. Thereafter, the cultured cells were washed twice with PBS. Subsequently, IRF-PIPA 3 was suspended in 10% FBS-RPMI or D-MEM to a final concentration of 6 μM, and was then added to the wells. After completion of the culture for 16 hours, an mRNA vaccine was added to the cultured cells to a final concentration of 0.5 μg/mL, and the obtained mixture was then cultured for 20 to 24 hours. Thereafter, the culture supernatant was recovered, and each protein concentration of IFN-β, IL-6 or TNF-α was then measured by ELISA.\n2×10^4 Raw264.7 cells were seeded on a plate, and were then treated with IRF-PIPA 1, IRF-PIPA 2, IRF-PIPA 3 or IRF-PIPA 4 for 24 hours. Thereafter, the cells were stimulated with LPS (Lipopolysaccharide, SIGMA-ALDRICH) for 16 hours, and the culture supernatant was then recovered. The concentration of cytokine in the culture supernatant was measured using ELISA kit (R&D SYSTEMS) according to the standard protocols. The culture supernatant was diluted with 1% BSA-PBS, as necessary, and was then analyzed. 2.5×10^5 Mouse peritoneal macrophages were seeded on a plate, and were then treated with IRF-PIPA 3 for 16 or 24 hours. […] The concentration of cytokine in the culture supernatant was measured using ELISA kit (R&D SYSTEMS) according to the same standard protocols. On the other hand, the concentration of cytokine in mouse plasma was measured by administering 400 μg/mouse IRF-PIPA 3 into the abdominal cavity of wild-type mice, then administering 250 μg of Poly(I:C) into the same abdominal cavity 24 hours after the IRF-PIPA 3 administration, then collecting blood further 2 hours after the Poly(I:C) administration, and then measuring the cytokine concentration in the plasma using ELISA kit (R&D SYSTEMS) according to standard protocols."}, "IFN-β": {"test_system": "IFN-β", "experiment": "IFN-β concentration in culture supernatant of LPS-stimulated Raw264.7 cells (ELISA)", "format": "cell-based", "details": "PIPA 1, 3 or 10 μM 24 h, then LPS 20 ng/mL 16 h", "description": "Raw264.7 cells, a macrophage cell line, were seeded on a 96-well plate at a cell density of 2×10^4 cells/well, and were then culture for 8 hours for adhesion. Thereafter, IRF-PIPA was added to the cultured cells to final concentrations of 1, 3, or 10 μM. After completion of the culture for 24 hours, LPS was added to the cultured cells to a final concentration of 20 ng/mL, and the obtained mixture was then cultured for 16 hours, followed by the recovery of the supernatant. The supernatant was 2-fold diluted with 1% BSA-PBS, and the IFN-β concentration was then measured by ELISA.\nRaw264.7 cells, a cell line, were purchased from RIKEN Cell Bank, and were then cultured using D-MEM (Nacalai Tesque) containing 10% FBS (SIGMA-ALDRICH) and Penicillin-Streptomycin mixed solution (Nacalai Tesque).\n2×10^4 Raw264.7 cells were seeded on a plate, and were then treated with IRF-PIPA 1, IRF-PIPA 2, IRF-PIPA 3 or IRF-PIPA 4 for 24 hours. Thereafter, the cells were stimulated with LPS (Lipopolysaccharide, SIGMA-ALDRICH) for 16 hours, and the culture supernatant was then recovered. The concentration of cytokine in the culture supernatant was measured using ELISA kit (R&D SYSTEMS) according to the standard protocols. The culture supernatant was diluted with 1% BSA-PBS, as necessary, and was then analyzed. 2.5×10^5 Mouse peritoneal macrophages were seeded on a plate, and were then treated with IRF-PIPA 3 for 16 or 24 hours. Thereafter, the cells were stimulated with Poly(I:C) (InvivoGen) for 16 hours or with mRNA vaccine (Moderna) for 20 to 24 hours, and the culture supernatant was then recovered. The concentration of cytokine in the culture supernatant was measured using ELISA kit (R&D SYSTEMS) according to the same standard protocols. On the other hand, the concentration of cytokine in mouse plasma was measured by administering 400 μg/mouse IRF-PIPA 3 into the abdominal cavity of wild-type mice, then administering 250 μg of Poly(I:C) into the same abdominal cavity 24 hours after the IRF-PIPA 3 administration, then collecting blood further 2 hours after the Poly(I:C) administration, and then measuring the cytokine concentration in the plasma using ELISA kit (R&D SYSTEMS) according to standard protocols."}, "[2]": {"test_system": "Ifnb1, Il6, and Tnf genes", "experiment": "In vivo relative mRNA expression in peritoneal macrophages after Poly(I:C) (qRT-PCR)", "set-up": "species or system mice", "details": "400 μg/mouse i.p., Poly(I:C) 250 μg/mouse i.p. 3 h later, peritoneal macrophages 2 h later", "description": "IRF-PIPA 3 was administered into the abdominal cavity of wild-type mice in an amount of 400 μg/mouse, and 3 hours after the administration, 250 μg/mouse Poly(I:C) was also administered into the abdominal cavity. Two hours after the administration of Poly(I:C), peritoneal macrophages were recovered, and the relative expression levels of Ifnb1, Il6, and Tnf genes were then analyzed by qRT-PCR."}, "RBD": {"test_system": "RBD", "experiment": "RBD concentration in plasma after mRNA vaccine plus Poly(I:C) (ELISA)", "format": "in vivo, mice", "details": "400 μg/mouse i.m. or i.p., 24 h later mRNA vaccine 1 μg/mouse i.m. plus Poly(I:C) 250 μg/mouse, blood one day later"}}}
{"smiles": "CC(=O)Nc1cn(C)c(C(=O)Nc2cc(C(=O)NCCC(=O)Nc3cc(C(=O)Nc4cn(C)c(C(=O)NCCC(=O)Nc5cn(C)c(C(=O)NCCCC(=O)Nc6cc(C(=O)Nc7cc(C(=O)Nc8cc(C(=O)NCCC(=O)Nc9cc(C(=O)Nc%10cc(C(=O)NCCC(=O)NCCCN(C)C)n(C)c%10)n(C)c9)n(C)c8)n(C)c7)n(C)c6)n5)n4)n(C)c3)n(C)c2)n1", "note": "[IRF-PIPA 3]", "values": [{"measurement": "Kd", "setting": "[1]", "result": 0.0227, "unit": "µM"}, {"measurement": "expression of IFN-β protein after LNP-mRNA", "setting": "IFN-β, IL-6 and TNF-α", "result": "strongly suppressed"}, {"measurement": "expression of IL-6 protein after LNP-mRNA", "setting": "IFN-β, IL-6 and TNF-α", "result": "strongly suppressed"}, {"measurement": "expression of TNF-α protein after LNP-mRNA", "setting": "IFN-β, IL-6 and TNF-α", "result": "strongly suppressed"}, {"measurement": "concentration dependence of suppression of IFN-β production", "setting": "IFN-β", "result": "concentration-dependent suppression was observed"}, {"measurement": "suppression of IFN-β production", "setting": "IFN-β; ELISA of supernatant", "result": "strongest suppressive action among the 4 PIPAs"}, {"measurement": "expression level of Ifnb1 mRNA in vivo", "setting": "[2]", "result": "significantly suppressed"}, {"measurement": "expression level of Il6 mRNA in vivo", "setting": "[2]", "result": "significantly suppressed"}, {"measurement": "expression level of Tnf mRNA in vivo", "setting": "[2]", "result": "significantly suppressed"}, {"measurement": "concentration of the RBD protein in plasma", "setting": "RBD", "result": "a decrease in the concentration of the RBD protein caused by Poly(I: C) was suppressed"}]}
